Laboratory results reported in patent US20240025849A1 (MAX DELBRÜCK-CENTRUM FÜR MOLEKULARE MEDIZIN IN DER …, priority 2020, published 2024).
pIC50: −log10 of the molar value. Values joined by “and” are separate entries in the source; they are usually repeats but may differ in a detail not shown here. Equal values may be shown once. “Also recorded” adds a separate entry of the source.

Experiments:
[1] = test system: primary cultured neonatal microglia; assay: LPS induced NO release, HTS setup (Griess reagent); assay type: cell-based; conditions: Mus musculus, 1 h pre-treatment, 1 μg/ml LPS 48 h, read-out: IC50, LPS-induced production of NO
Procedure: Primary cultured neonatal microglia. For preparation of cultured neonatal microglia, P0-P3 mice were used. 10 brains were extracted, meninges and cerebellum were removed and put on ice with Hank's balanced salt solution (HBSS). The dissected brains were washed 3 times before adding 400 μL trypsin (0.1 mg/L) and DNAse (5 μg/L) in phosphate buffered saline (PBS). After 2 min of incubation with this solution, the reaction was blocked by adding plain medium. After removal of the medium, 1 mg DNAse was added and the cells were mechanically dissociated, with a Pasteur pipette followed by a glass pipette. The cells were centrifuged for 10 min at 129 g at 4° C. The supernatant was discarded. The pellet was resuspended in plain medium and plated (2.5 brains/flask) in Poly-L-Lysine coated flasks. […]
High throughput screening (HTS). […] Incubation with LPS and compounds was continued for 48 hours, followed by addition of 25 μl of 2-fold concentrated Griess reagent and absorbance reading at 540 nm in a plate reader (Safire2, Tecan, Maennedorf, Switzerland). Active compounds were identified by decreased Z-scores of the absorbance signal. […]
Concentration-dependent validation and viability determination. […] Each concentration was measured in duplicate. […] Finally, the resorufin fluorescence was detected at an excitation wavelength of 530 nm and emission of 570 nm. […]

[2] = test system: bone marrow derived macrophages; assay: Cytokine release (IL1β, IL6, TNFα) ELISA in macrophages; assay type: cell-based, mouse; conditions: 1 μg/mL LPS 48 hours
Procedure: Primary cultured macrophages. Bone marrow macrophages were isolated from C57BL/6 adult mice (P49-56) as previously described (Marim et al., 2010). In summary, mice were killed by cervical dislocation and the femurs were removed by cutting through the tibia near the pelvic bone and below the knee. Any muscle connected to the bone was carefully removed. Ice cold sterile PBS was slowly flushed through the bone and the contents were collected in a sterile 15 mL polypropylene tube on ice. After centrifugation for 10 min at 200 g at 4° C., red blood cells were lysed by adding 3-10 mL ammonium chloride solution. After a 3-5 min recovery period, the suspension was centrifuged for 10 min at 200 g at 4° C. and the supernatant was removed. Cells were plated in a 10 cm dish with plain medium containing 10 ng/mL M-CSF and cultured for 7 days to allow differentiation. 50 000 cells were plated with 200 μL medium per well in a 96 well plate.
Enzyme-linked immunosorbent assay (ELISA). Cells were seeded according to the protocols described above, after compounds and stimuli were added, the supernatant was collected, centrifuged (500 g, 5 minutes) and stored at −20° C. until analysed. The following kits from Bio-Techne (Minneapolis, USA) were used to detect IL1β, IL6 and TNFα: ELISA Mouse IL-1β/IL-1F2 Duo Set, ELISA Mouse IL-6, ELISA Mouse TNFα. ELISA assays were performed according to the manufacturers protocol.

## COc1ccc(NC(=O)C(NC(=O)C2CCCN2C(=O)OCc2ccccc2)c2ccc(OC)cc2)cc1 (centres unmarked) [C1]
[1]
  pIC50: 6.65
[2]
  LPS induced release of IL1β: not changed; also recorded: Neither the treatment with C1 nor with DMSO showed any significant changes
  LPS induced release of IL6: not changed; also recorded: Neither the treatment with C1 nor with DMSO showed any significant changes
[2]; 2.5 μM (highest concentration) C1
  reduction of TNFα release: 9% and 5%
[2]; 2.5 μM C1
  release of TNFα, % of positive control: 91%
